This is an account of results in PMC8447191, “Peptide Amphiphilic-Based Supramolecular Structures with Anti-HIV-1 Activity” (Bioconjugate Chemistry, 2021).

For one data set, the system named is HIV-1BaL. It counts as cell-based. Particulars: HIV-1BaL, TZM-bl cells; peptide 10-0.00061 μM for 1 h at 37 °C before virus; luciferase after 48 h; sigmoid fit; mean of triplicates. How it is done:
HIV-1BaL[52] was provided by the NIH AIDS Research & Reference Reagent Program (http://www.aidsreagent.org/). Viral stock was prepared by passage through activated PBMCs[53] for 11 days.
Luciferase-reporter HeLa cells stably transfected to express CD4 and CCR5; TZM-bl cells[54]−[56] were grown in Dulbecco’s Minimal Essential Medium (DMEM) (Sigma-Aldrich, Inc., St. Louis, MO) containing 10% fetal calf serum (FCS), 2 mM L-glutamine, and antibiotics (100 U of penicillin/mL, 100 μg of streptomycin/mL) at 37 °C in an atmosphere containing 5% CO2.
All inhibition assays in cellular and tissue explants models were performed using a standardized amount of virus culture supernatant normalized for infectivity. TZM-bl cells were incubated with serial dilutions of peptides (from 10 μM to 0.00061 μM) for 1 h at 37 °C, prior to challenge with HIV-1BaL. Luciferase expression (r.l.u. values) was determined after 48 h. Alternatively, tissue explants were incubated with serial dilutions of peptide (from 100 μM to 0.1 μM) for 1 h before virus (10^4 TCID50/mL) was added for 2 h. Explants were then washed four times with PBS to remove unbound virus and drug. Colorectal explants were then transferred onto gelfoam rafts (Welbeck Pharmaceuticals, UK) and cultured for 15 days as described previously[57] […]. Explants were cultured for up to 15 days in the absence of peptide. Approximately 50% of the supernatants were harvested every 2–3 days and explants were re-fed with fresh media. The extent of viral replication in tissue explants was determined by measuring the p24 antigen concentration in supernatants (INNOTEST HIV antigen mAb; Fujirebio Europe, Belgium). The extent of inhibition by each peptide was calculated. The percentage of inhibition was normalized relative to the r.l.u, for TZM-bl cells, or p24, for tissue explants, values obtained for cells or explants cultured in the absence of virus (100% inhibition) and for cells or explants infected with virus in the absence of peptide (0% inhibition). Data are the mean (±SEM) of triplicates. When a dose–response curve was obtained, IC50 and, if possible, IC95 values were calculated from sigmoid curve fits (GraphPad Prism). For all curves, R^2 is >0.7.

Another data set is described as follows: MTT cytotoxicity assay. It is filed as cell-based. The following applies: human, HeLa-env cells, PAs coassembled with 5% FAM, 40-2.3 μM, absorbance 560 nm. How it is done: The metabolic activity of the cell line, related to the cytotoxic effect of the compounds to be tested, is measured after 24 h using the MTT assay. This assay is based on the metabolic reduction of 3-(4,5-dimethylthiazol-2-yl)-2,5-diphenyl-2H-tetrazolium bromide (MTT), carried out by the mitochondrial enzyme succinate dehydrogenase, in a colored compound of blue color (formazan) that can be monitored by absorbance spectroscopy at 560 nm, allowing determination of the mitochondrial functionality of the treated cells.
The HeLa-env cell line is seeded in 96-well plates with an initial density of 15,000 cells per well in 100 μL of culture medium (Dulbecco’s modified Eagle’s medium, DMEM, with 10% FBS added) and incubated for 24 h at 37 °C and 5% CO2 to allow their adhesion. The cell monolayers are washed with PBS, and then 100 μL of PAs formulations (peptide amphiphiles coassembled with 5% FAM) are added in a concentration range from 40 μM to 2.3 μM. The plates are kept in incubation for further 24 h.
At the end of the incubation time, the cells are incubated for 3 h with 1 mg/mL of MTT, dissolved in culture medium without FBS, to allow the formation of formazan crystals. Subsequently, 100 μL of DMSO are added to wells, stirring the plates for 30 min at room temperature to facilitate the complete dissolution of the crystals. Finally, the absorbance at 560 nm is measured in a microplate reader.
The results are expressed as relative percentage between absorbance of PA formulations against absorbance of its DMSO controls and CC50 and CC25 values are taken from dose–response curves.
In general terms: Formazan colour is commonly taken as a measure of viable cells.

A short description of data set [1]: Visual stability and aspect of POPC vesicles mixed with PAs (SAXS samples). It is filed as physicochemical. Particulars: POPC 20 mM + 2 mM PA, 0.5% DMSO. How it is done:
In Figure 5A,B, we show the spectra corresponding to POPC 20 mM and POPC 20 mM + 2 mM PAs (all of them in the presence of 0.5% DMSO). The band centered at 1.2 nm^–1 and the secondary band at 3.2 nm^–1 were typical of unilamellar vesicles.[35]
The incorporation of PAs had some distinct consequences. The first and more obvious one is the distinction between stable and unstable systems.

Assay in data set [2]: not given
The source holds these as a separate data set.

Assay in data set [3]: not given
The source holds these as a separate data set.

What is called pIC50 is the IC50 on a negative log10 scale, so that one unit is a factor of ten. In general, CC50 refers to the concentration at which the toxic effect on the cells reaches its halfway point. A word on the IC95: it is the concentration at which the effect reaches the 95% level. High values mean a need for much substance, low ones an effect from little substance.

The structures appear in SMILES notation. pIC50: −log10 of the molar value. *1 amine or outer side, *2 acyl side, *3 side chain or, on linkers, in order; H or OH if unused. Where a SMILES comes first, the peptide text is derived from it. Side-chain parts run from the residue outwards. The star is where a group is joined. X1 = CC(C)CCC[C@@H](C)[C@H]1CC[C@H]2[C@@H]3CC=C4C[C@@H](OC(=O)CSC[C@H](N)C(=O)*)CC[C@]4(C)[C@H]3CC[C@]12C; PEG28 = NCCOCCOCCOCCOCCOCCOCCOCCOCCOCCOCCOCCOCCOCCOCCOCCOCCOCCOCCOCCOCCOCCOCCOCCOCCOCCOCCOCCOCCC(=O)O; N(octadecyl)2 = CCCCCCCCCCCCCCCCCCN(CCCCCCCCCCCCCCCCCC)*; Suc = O=C(CCC(=O)[*:2])[*:1] Bounds are passed on as bounds.

In turn, `CC[C@H](C)[C@H](NC(=O)[C@@H](NC(=O)CNC(=O)[C@H](CCCNC(=N)N)NC(=O)[C@H](Cc1c[nH]c2ccccc12)NC(=O)[C@H](Cc1ccccc1)NC(=O)[C@H](CC(=O)O)NC(=O)[C@H](Cc1ccccc1)NC(=O)[C@@H]1CCCN1C(=O)[C@@H](NC(=O)[C@H](CCCCNC(=O)CCOCCOCCOCCOCCOCCOCCOCCOCCOCCOCCOCCOCCOCCOCCOCCOCCOCCOCCOCCOCCOCCOCCOCCOCCOCCOCCOCCOCCNC(=O)[C@@H](N)CSCC(=O)O[C@H]1CC[C@@]2(C)C(=CC[C@H]3[C@@H]4CC[C@H]([C@H](C)CCCC(C)C)[C@@]4(C)CC[C@@H]32)C1)NC(=O)[C@H](Cc1c[nH]c2ccccc12)NC(=O)[C@H](CC(C)C)NC(=O)[C@H](Cc1ccc(O)cc1)NC(=O)[C@H](CCC(=O)O)NC(=O)[C@H](CC(C)C)NC(=O)[C@@H](NC(=O)[C@@H](N)Cc1c[nH]c2ccccc12)[C@@H](C)CC)C(C)C)C(C)C)C(N)=O` [K-PAchol] (H-WILEYLWK([PEG28-X1])VPFDFWRGVI-NH2) gave a lamellar liquid crystal periodicity of 4.8 nm. In the data set on HIV-1BaL, this molecule gave a pIC50 of 7.05. The molecule further came in with a CC50 at 24 h in the data set “MTT cytotoxicity assay” of more than 40 µM. In data set [1], the “stability / aspect of the sample” value is listed as “bluish”.
As for `CC[C@H](C)[C@H](NC(=O)[C@@H](NC(=O)CNC(=O)[C@H](CCCNC(=N)N)NC(=O)[C@H](Cc1c[nH]c2ccccc12)NC(=O)[C@H](Cc1ccccc1)NC(=O)[C@H](CC(=O)O)NC(=O)[C@H](Cc1ccccc1)NC(=O)[C@@H]1CCCN1C(=O)[C@@H](NC(=O)[C@H](CCCCN)NC(=O)[C@H](Cc1c[nH]c2ccccc12)NC(=O)[C@H](CC(C)C)NC(=O)[C@H](Cc1ccc(O)cc1)NC(=O)[C@H](CCC(=O)O)NC(=O)[C@H](CC(C)C)NC(=O)[C@@H](NC(=O)[C@@H](N)Cc1c[nH]c2ccccc12)[C@@H](C)CC)C(C)C)C(C)C)C(N)=O` [E1P47] (H-WILEYLWKVPFDFWRGVI-NH2), in the data set on HIV-1BaL, the pIC50 was 5.14 and the IC95 was 28.21 µM. The molecule also showed a Trp fluorescence emission maximum (λmax) in data set [2] of 356 nm.
`CCCCCCCCCCCCCCCCCCN(CCCCCCCCCCCCCCCCCC)C(=O)CCC(=O)NCCOCCOCCOCCOCCOCCOCCOCCOCCOCCOCCOCCOCCOCCOCCOCCOCCOCCOCCOCCOCCOCCOCCOCCOCCOCCOCCOCCOCCC(=O)NCCCC[C@H](NC(=O)[C@H](Cc1c[nH]c2ccccc12)NC(=O)[C@H](CC(C)C)NC(=O)[C@H](Cc1ccc(O)cc1)NC(=O)[C@H](CCC(=O)O)NC(=O)[C@H](CC(C)C)NC(=O)[C@@H](NC(=O)[C@@H](N)Cc1c[nH]c2ccccc12)[C@@H](C)CC)C(=O)N[C@H](C(=O)N1CCC[C@H]1C(=O)N[C@@H](Cc1ccccc1)C(=O)N[C@@H](CC(=O)O)C(=O)N[C@@H](Cc1ccccc1)C(=O)N[C@@H](Cc1c[nH]c2ccccc12)C(=O)N[C@@H](CCCNC(=N)N)C(=O)NCC(=O)N[C@H](C(=O)N[C@H](C(N)=O)[C@@H](C)CC)C(C)C)C(C)C` [K-PAdialkyl] (H-WILEYLWK([PEG28-Suc-N(octadecyl)2])VPFDFWRGVI-NH2) gave a negative logarithm of the IC50 (pIC50) with HIV-1BaL of 7.30. The same molecule had a CC50 at 24 h in “MTT cytotoxicity assay” of more than 40 µM. Also, in data set [1], the “stability / aspect of the sample” value is reported as “milky”. The vesicular bilayer thickness in data set [3] turned out to be 9 nm.
